# Counter-ions that a name gives are not always drawn. Like-named read-outs stand apart in the source and are kept apart here.
# Target: T1, IKK2 (Homo sapiens, UniProt O14920)
# T1 construct: made in house; host or cells: insect cells (baculovirus, pFastBac; SF9)
# T1 sequence (O14920 1-756): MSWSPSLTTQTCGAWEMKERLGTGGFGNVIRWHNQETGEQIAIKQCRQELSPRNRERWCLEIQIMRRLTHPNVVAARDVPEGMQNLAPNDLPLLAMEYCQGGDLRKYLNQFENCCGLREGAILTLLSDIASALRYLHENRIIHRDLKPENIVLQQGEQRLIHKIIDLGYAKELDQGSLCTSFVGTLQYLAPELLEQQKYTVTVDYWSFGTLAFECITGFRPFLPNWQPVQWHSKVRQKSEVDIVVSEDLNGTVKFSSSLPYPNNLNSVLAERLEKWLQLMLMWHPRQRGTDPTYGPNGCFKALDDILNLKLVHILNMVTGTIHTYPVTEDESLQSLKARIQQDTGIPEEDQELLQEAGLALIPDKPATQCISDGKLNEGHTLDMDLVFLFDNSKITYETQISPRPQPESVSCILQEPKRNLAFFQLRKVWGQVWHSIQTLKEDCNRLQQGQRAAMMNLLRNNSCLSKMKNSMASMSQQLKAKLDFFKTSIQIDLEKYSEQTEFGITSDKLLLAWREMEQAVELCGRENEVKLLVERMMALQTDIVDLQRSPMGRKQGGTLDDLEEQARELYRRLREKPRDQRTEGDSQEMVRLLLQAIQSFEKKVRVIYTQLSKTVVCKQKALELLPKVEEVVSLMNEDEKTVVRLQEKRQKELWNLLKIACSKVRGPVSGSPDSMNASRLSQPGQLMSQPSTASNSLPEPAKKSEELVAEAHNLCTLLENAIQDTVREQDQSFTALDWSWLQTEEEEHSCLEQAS
# Assay: IKKβ Resin Enzyme Assay (IKK2 resin)
# Type: biochemical
# Procedure, shortened: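 Enzyme: human IKK2 with a C-terminal FLAG tag, baculovirus-expressed, purified as homodimer on anti-FLAG resin. It phosphorylates a biotinylated IκBα peptide with 1 μM ATP plus [γ-33P]ATP in 25 mM Hepes pH 7.6, Mg/Mn, for 30 min at 25° C. Incorporation is counted by scintillation after anion-exchange resin stop.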
# [1] = Table 4, read-out: IKK2 Resin IC50
# [2] = Table 2, read-out: IKK Resin IC50
# [3] = Table 6, read-out: IKK2 Resin IC 50
# [4] = Table 14, read-out: IKK2 Resin IC50
# [5] = Table 10, read-out: IKK2 Resin IC50
structure (smiles),measurement,setting,value
"CSc1ccc(Cl)c(C(=O)Nc2ccc3c(c2)-c2c(c(C(N)=O)nn2-c2ccc4c(c2)OCO4)CC3)c1 [Example 190, 1-(1,3-benzodioxol-5-yl)-8-{2-chloro-5-[2-(methylthio)benzoyl]amino}-4,5-dihydro-1H-benzo[g]indazole-3-carboxamide]",IC50,[1],≤ 1000 nM
"CS(=O)(=O)c1ccc(-n2nc(C(N)=O)c3c2-c2cc(NC(=O)c4cc(N=[N+]=[N-])ccc4[N+](=O)[O-])ccc2CC3)cc1 [Example 121, 8-[(5-azido-2-nitrobenzoyl)amino]-1-[4-(methylsulfonyl)phenyl]-4,5-dihydro-1H-benzo[g]indazole-3-carboxamide]",IC50,[2],≤ 1000 nM
"CS(=O)(=O)c1ccc(-n2nc(C(N)=O)c3c2-c2cc(NC(=O)c4ccccc4Cl)ccc2CC3)cn1 [Example 368, 8-[(2-chlorobenzoyl)amino]-1-[6-(methylsulfonyl)pyridin-3-yl]-4,5-dihydro-1H-benzo[g]indazole-3-carboxamide]",IC50,read-out: IKK-2 resin IC50,≤ 1000 nM
"CN(C)c1ccc(Cl)c(C(=O)Nc2ccc3c(c2)-c2c(c(C(N)=O)nn2-c2ccc(F)cc2)CC3)c1 [Example 237, 8-{[2-chloro-5-(dimethylamino)benzoyl]amino}-1-(4-fluorophenyl)-4,5-dihydro-1H-benzo[g]indazole-3-carboxamide]",IC50,[3],≤ 1000 nM
"CC1(C)OCC(COc2cccc(-n3nc(C(N)=O)c4c3-c3cc(NC(=O)c5ccncc5Cl)ccc3CC4)c2)O1 (centres unmarked) [Example 275, 8-[(3-chloroisonicotinoyl)amino]-1-{3-[(2,2-dimethyl-1,3-dioxolan-4-yl)methoxy]phenyl}-4,5-dihydro-1H-benzo[g]indazole-3-carboxamide]",IC50,"Table 9, read-out: IKK2 Resin IC50",1000 to 10000 nM
"NC(=O)c1nn(-c2ccc(F)c(F)c2)c2c1CCc1ccc(NC(=O)c3cccnc3Cl)cc1-2 [Example 364, 8-{[(2-chloropyridin-3-yl)carbonyl]amino}-1-(3,4-difluorophenyl)-4,5-dihydro-1H-benzo[g]indazole-3-carboxamide]",IC50,[4],≤ 1000 nM
"NC(=O)c1nn(-c2ccc(F)cc2)c2c1CCc1ccc(NC(=O)c3cc(Cl)cnc3Cl)cc1-2 [Example 223, 8-{[(2,5-dichloropyridin-3-yl)carbonyl]amino}-1-(4-fluorophenyl)-4,5-dihydro-1H-benzo[g]indazole-3-carboxamide]",IC50,[3],≤ 1000 nM
"CS(=O)(=O)c1ccc(-n2nc(C(N)=O)c3c2-c2cc(NC(=O)c4cc(N)ccc4Cl)ccc2CC3)cc1 [Example 112, 8-[(5-amino-2-chlorobenzoyl)amino]-1-[4-(methylsulfonyl)phenyl]-4,5-dihydro-1H-benzo[g]indazole-3-carboxamidehydrochloride]",IC50,[2],≤ 1000 nM
"CS(=O)(=O)c1ccc(-n2nc(C(N)=O)c3c2-c2cc(NC(=O)c4cccnc4Cl)ccc2CC3)cc1 [Example 98, 8-{[(2-chloropyridin-3-yl)carbonyl]amino}-1-[4-(methylsulfonyl)phenyl]-4,5-dihydro-1H-benzo[g]indazole-3-carboxamide]",IC50,[2],≤ 1000 nM
"CS(=O)(=O)c1ccc(-n2nc(C(N)=O)c3c2-c2cc(NC(=O)c4ccc(C#N)cc4)ccc2CC3)cc1 [Example 144, 8-[(4-cyanobenzoyl)amino]-1-[4-(methylsulfonyl)phenyl]-4,5-dihydro-1H-benzo[g]indazole-3-carboxaniide]",IC50,"Table 3, read-out: IKK Resin IC50",≤ 1000 nM
"CS(=O)(=O)c1ccc(Cl)c(C(=O)Nc2ccc3c(c2)-c2c(c(C(N)=O)nn2-c2ccc4c(c2)OCO4)CC3)c1 [Example 185, 1-(1,3-benzodioxol-5-yl)-8-{[2-chloro-5-(methylsulfonyl)benzoyl]amino}-4,5-diliydro-1H-benzo[g]indazole-3-carboxamide]",IC50,[1],≤ 1000 nM
"NC(=O)c1nn(-c2ccc(Br)cc2)c2c1CCc1ccc(NC(=O)c3ccccc3Cl)cc1-2 [Example 350, 1-(4-bromophenyl)-8-[(2-chlorobenzoyl)amino]-4,5-dihydro-1H-benzo[g]indazole-3-carboxamide]",IC50,[4],≤ 1000 nM
"C=CCNS(=O)(=O)c1ccc(-n2nc(C(N)=O)c3c2-c2cc(NC(=O)c4ccccc4Cl)ccc2CC3)cc1 [Example 421, 1-{4-[(allylamino)sulfonyl]phenyl}-8-[(2-chlorobenzoyl)amino]-4,5-dihydro-1H-benzo[g]indazole-3-carboxamide]",IC50,read-out: IKK-2 resin IC50,≤ 1000 nM
"NC(=O)c1nn(-c2ccc(/C=C/C(=O)NCc3ccco3)cc2)c2c1CCc1ccc(NC(=O)c3ccccc3Cl)cc1-2 [Example 310, 8-[(2-chlorobenzoyl)amino]-1-(4-{(1E)-3-[(2-furylmethyl)amino]-3-oxoprop-1-enyl}phenyl)-4,5-dihydro-1H-benzo[g]indazole-3-carboxamide]",IC50,"Table 12, read-out: IKK2 Resin IC50",≤ 1000 nM
"NC(=O)c1nn(-c2cccc(O)c2)c2c1CCc1ccc(NC(=O)c3cccnc3Cl)cc1-2 [Example 284, 8-{[(2-chloropyridin-3-yl)carbonyl]amino}-1-(3-hydroxyphenyl)-4,5-dihydro-1H-benzo[g]indazole-3-carboxamide]",IC50,[5],≤ 1000 nM
"COc1ccc(C(=O)Nc2ccc3c(c2)-c2c(c(C(N)=O)nn2-c2cccc(O)c2)CC3)c(Cl)c1OC [Example 286, 8-[(2-chloro-3,4-dimethoxybenzoyl)amino]-1-(3-hydroxyphenyl)-4,5-dihydro-1H-benzo[g]indazole-3-carboxamide]",IC50,[5],≤ 1000 nM
"NC(=O)c1nn(-c2ccc(F)cc2)c2c1CCc1ccc(NC(=O)c3cccc([N+](=O)[O-])c3Cl)cc1-2 [Example 241, 8-[(2-chloro-3-nitrobenzoyl)amino]-1-(4-fluorophenyl)-4,5-dihydro-1H-benzo[g]indazole-3-carboxamide]",IC50,[3],≤ 1000 nM
"CS(=O)(=O)c1ccc(-n2nc(C(N)=O)c3c2-c2cc(NC(=O)c4cccc(Cl)c4F)ccc2CC3)cc1 [Example 104, 8-[(3-chloro-2-fluorobenzoyl)amino]-1-[4-(methylsulfonyl)phenyl]-4,5-dihydro-1H-benza[g]indazole-3-carboxamide]",IC50,[2],≤ 1000 nM
"NC(=O)c1nn(-c2ccc(O)cc2)c2c1CCc1ccc(NC(=O)c3ccccc3Cl)cc1-2 [Example 261, 8-[(2-chlorobenzoyl)amino]-1-(4-hydroxyphenyl)-4,5-dihydro-1H-benzo[g]indazole-3-carboxamide]",IC50,"Table 8, read-out: IKK2 Resin IC50",≤ 1000 nM
"NC(=O)c1nn(-c2ccc(F)cc2)c2c1CCc1ccc(NC(=O)c3ccc(C(F)(F)F)nc3Cl)cc1-2 [Example 234, 8-({[2-chloro-6-(trifluoromethyl)pyridin-3-yl]carbonyl}amino)-1-(4-fluorophenyl)-4,5-dihydro-1H-benzo[g]indazole-3-carboxamide]",IC50,[3],≤ 1000 nM
"NC(=O)c1nn(-c2ccc(C#CCCCO)cc2)c2c1CCc1ccc(NC(=O)c3cccnc3Cl)cc1-2 [Example 387, 8-{[(2-chloropyridin-3-yl)carbonyl]amino}-1-[4-(5-hydroxypent-1-ynyl)phenyl]-4,5-dihydro-1H-benzo[g]indazole-3-carboxamide]",IC50,"Table 17, read-out: IKK2 Resin IC50",≤ 1000 nM
"Cc1c(O)cccc1C(=O)Nc1ccc2c(c1)-c1c(c(C(N)=O)nn1-c1ccc(F)cc1)CC2 [Example 231, 1-(4-fluorophenyl)-8-[(3-hydroxy-2-methylbenzoyl)amino]-4,5-dihydro-1H-benzo[g]indazole-3-carboxamide]",IC50,[3],≤ 1000 nM
"CC(C)CNCC(=O)Nc1ccc2c(c1)-c1c(c(C(N)=O)nn1-c1ccc3c(c1)OCO3)CC2 [Example 451, 1-(1,3-benzodioxol-5-yl)-8-[(N-isobutylglycyl)amino]-4,5-dihydro-1H-benzo[g]indazole-3-carboxamide]",IC50,"Table 23, read-out: IKK2 Resin IC50",≤ 1000 nM
"CN1CCN(c2ccc(Cl)c(C(=O)Nc3ccc4c(c3)-c3c(c(C(N)=O)nn3-c3ccc(S(C)(=O)=O)cc3)CC4)c2)CC1 [Example 126, 8-{[2-chloro-5-(4-methylpiperazin-1-yl)benzoyl]amino}-1-[4-(methylsulfonyl)phenyl]-4,5-dihydro-1H-benzo[g]indazole-3-carboxamide]",IC50,[2],≤ 1000 nM
"NC(=O)c1nn(-c2ccc3c(c2)OCO3)c2c1CCc1ccc(NC(=O)c3cc4c(cc3Cl)OCO4)cc1-2 [Example 168, 1-(1,3-benzodioxol-5-yl)-8-{[(6-chloro-1,3-benzodioxol-5-yl)carbonyl]amino}-4,5-dihydro-1H-benzo[g]indazole-3-carboxamide]",IC50,[1],≤ 1000 nM
"Cc1ccccc1C(=O)Nc1ccc2c(c1)-c1c(c(C(N)=O)nn1-c1ccc(F)cc1)CC2 [Example 240, 1-(4-fluorophenyl)-8-[(2-methylbenzoyl)amino]-4,5-benzo[g]indazole-3-dihydro-1H-carboxamide]",IC50,[3],≤ 1000 nM
